Converted amounts (≈) assume the structure as drawn.
What was measured:
HEP-G2 cells = test: MTT cell viability assay, HEP-G2 tumor cells; format: cell-based; conditions: Homo sapiens, HepG2, 72 h
Text: (§1) The human hepatocellular carcinoma cell line HEP-G2 (ATCC HB-8065) and the monkey kidney epithelial cell line VERO (ATCC CCL-81) were obtained from the Laboratory of Immunology and Virology in FCB at UANL (FCB-UANL), México, and cultured in DMEM, supplemented with 10% heat-inactivated FBS, 2% NaHCO3, and HEPES [57]. Murine lymphoma L5178Y-R cells (ATCC CRL-1722) and human peripheral blood mononuclear cells (PBMC) were maintained in RPMI-1640 culture medium, supplemented with 10% heat-inactivated FBS and 1% antibiotic/antimycotic solution [26]. Assays were conducted with adherent HEP-G2 and VERO cells on flat-bottom microplates and non-adherent L5178Y-R and PBMC cells were evaluated on round-bottom microplates.
(§2) Cells were cultured at 37 °C and 5% CO2 in 95% air in a humidified incubator, in the presence or absence of treatments for 72 h. After which they were incubated with MTT (0.5 mg/mL final concentration) at 37 °C in 5% CO2 for 3 h and supernatants were discarded after the incubation period. Resulting formazan crystals were dissolved in DMSO, and optical densities (OD) were measured at 540 nm, using a microplate reader (Molecular Devices Corporation in Palo Alto, CA). In addition, […] (IC50) values were determined after 72 h incubation with treatments at concentrations ranging from 7.81 µg/mL to 1000 µg/mL and ODs were measured at 570 nm on a microplate reader (Molecular Devices Corporation). The positive control consisted of 0.05 µg/mL VS and the negative control was culture medium alone. All treatments were diluted in DMSO to a final well test concentration not exceeding 0.5% (v/v). Cell viability was determined using the following Formula (2):(2) Cell viability %=OD570nmTreatment/OD570nmNegative control×100
To determine the selectivity index (SI) for each treatment, we divided the IC50 of […]. SI was assessed for adherent cells (non-tumor/tumor) and for non-adherent cells (non-tumor/tumor). […] SI was calculated using the following Formula (3):(3) SI=IC50 Normal Cells/IC50 Tumor Cells

PBMC = test: MTT cell viability assay, normal PBMC; format: cell-based; conditions: Homo sapiens, 72 h, normal cells
Text: as §1, §2

human red blood cells [1] = test: Anti-hemolytic activity test (AAPH inhibition); format: cell-based; conditions: human erythrocytes, AAPH 150 mM, PBS pH 7.4
Method: The AAPH inhibition test was used to determine the anti-hemolytic activity, as previously reported. Hemolysis was induced by the AAPH radical (150 mM in PBS) as a positive control. Treatment concentrations ranged from 7.81 µg/mL to 1000 µg/mL in PBS at pH 7.4 plus AAPH. IC50 values were defined as the sample concentration needed to cause 50% hemolysis of human red blood cells. The anti-hemolytic activity was evaluated using the following Formula (5):(5) % Anti−hemolytic Activity=1−OD570nm Treatment/OD570nm Positive control×100

VERO cells = test: MTT cell viability assay, normal VERO cells; format: cell-based, African green monkey; conditions: Chlorocebus sabaeus, 72 h
Text: as §1, §2

human red blood cells [2] = test: Hemolytic activity test; format: cell-based; conditions: human erythrocytes, PBS pH 7.4; for IC50: Erythrocyte
Method: The hemolytic activity was assessed using the hemolysis test at treatment concentrations ranged from 7.81 µg/mL to 1000 µg/mL in PBS at pH 7.4. IC50 values were defined as the sample concentration needed to cause 50% hemolysis of human red blood cells. The percentage of hemolysis was determined by measuring ODs at 540 nm as follows (4):(4) Hemolysis %=OD540nm Treatment/OD540nm Positive control×100

L5178Y-R cells = test: MTT cell viability assay, L5178Y-R lymphoma cells; format: cell-based, murine; conditions: Mus musculus, 72 h, tumor cells
Text: as §1
Cells were cultured at 37 °C and 5% CO2 in 95% air in a humidified incubator, in the presence or absence of treatments for 72 h. […] Resulting formazan crystals were dissolved in DMSO, and optical densities (OD) were measured at 540 nm, using a microplate reader (Molecular Devices Corporation in Palo Alto, CA). […] Cell viability was determined using the following Formula (2):(2) Cell viability %=OD570nmTreatment/OD570nmNegative control×100
To determine the selectivity index (SI) for each treatment, we divided the IC50 of […]. SI was assessed for adherent cells (non-tumor/tumor) and for non-adherent cells (non-tumor/tumor). […]

IC50 (HEP-G2 cells) [µg/mL]	IC50 (L5178Y-R cells) [µg/mL]	SMILES	IC50 (PBMC) [µg/mL]	Anti-Hemolytic Activity IC50 (human red blood cells [1])	IC50 (VERO cells) [µg/mL]	IC50 (human red blood cells [2]) [µg/mL]	Hemolytic Activity IC50 (human red blood cells [2])	IC50 (human red blood cells [1]; Erythrocyte) [µg/mL]
130 ± 3.68 (≈ 364 µM)		C=CC(C)(C)c1cc2cc3c(cc2oc1=O)OC(C(C)(C)OC(C)=O)C3 (stereo not drawn) [RTM, Rutamarin]	151 ± 10.1 (≈ 424 µM)	did not exhibit any anti-hemolytic activity	430 ± 4.07 (≈ 1210 µM)	> 1500	did not show significant hemolytic activity	
54.6 ± 3.34 (≈ 196 µM)	< 50	Cn1c(-c2ccc3c(c2)OCO3)cc(=O)c2ccccc21 [GRV, Graveoline]	159 ± 30.6 (≈ 569 µM)	did not exhibit any anti-hemolytic activity	179 ± 7.39 (≈ 640 µM)	57.6 ± 11.3 (≈ 206 µM)		
76.2 ± 2.85 (≈ 300 µM)		C=CC(C)(C)c1cc2cc3ccoc3cc2oc1=O [CHL, Chalepensin]	226 ± 5.67 (≈ 891 µM)		387 ± 9.24 (≈ 1520 µM)	101 ± 4.2 (≈ 397 µM)	did not show significant hemolytic activity	180 ± 4.76 (≈ 707 µM)

Source: article PMC10255231, “Cytotoxic, Anti-Hemolytic, and Antioxidant Activities of Ruta chalepensis L. (Rutaceae) Extract, Fractions, and Isolated Compounds” (Plants, 2023)
